Experimental data reported in publication PMC7044277 (Nature Communications, 2020).
Where “and” joins values, the source holds several entries; their conditions need not be identical. Equal entries are not always repeated.

Key:
Type in all cases: cell-based
320 non-olfactory GPCRs [1] = biological target: 320 non-olfactory GPCRs (Homo sapiens, UniProt P21554)
320 non-olfactory GPCRs [2] = biological target: T1, 320 non-olfactory GPCRs (Homo sapiens, UniProt Q01718); conditions: receptor MC2R; replicate values, Fig_4g
T1 construct: expressed in transfected cells; host or cells: HTLA cells

320 non-olfactory GPCRs [3] = biological target: T2, 320 non-olfactory GPCRs (Homo sapiens, UniProt P30556)
T2 construct: expressed in transfected cells; host or cells: HTLA cells

320 non-olfactory GPCRs [4] = biological target: T3, 320 non-olfactory GPCRs (Homo sapiens, UniProt Q8NFJ6); conditions: receptor PK2; replicate values, Fig_4g
T3 construct: expressed in transfected cells; host or cells: HTLA cells
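Wherever Fold of Basal is given: compound tested at 1 µM final concentration.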
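Wherever GPCRome agonism screen response is given: fold over basal response of each receptor without drug.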

T1 sequence (Q01718 whole entry): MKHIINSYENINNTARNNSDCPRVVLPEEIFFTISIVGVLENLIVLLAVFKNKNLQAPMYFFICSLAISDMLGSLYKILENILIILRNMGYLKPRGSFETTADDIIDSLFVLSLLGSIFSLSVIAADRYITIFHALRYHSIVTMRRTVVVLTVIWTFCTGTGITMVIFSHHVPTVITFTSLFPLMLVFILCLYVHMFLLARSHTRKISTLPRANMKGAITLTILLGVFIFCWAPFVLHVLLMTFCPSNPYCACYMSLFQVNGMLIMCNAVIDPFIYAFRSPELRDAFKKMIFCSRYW
T2 sequence (P30556 whole entry): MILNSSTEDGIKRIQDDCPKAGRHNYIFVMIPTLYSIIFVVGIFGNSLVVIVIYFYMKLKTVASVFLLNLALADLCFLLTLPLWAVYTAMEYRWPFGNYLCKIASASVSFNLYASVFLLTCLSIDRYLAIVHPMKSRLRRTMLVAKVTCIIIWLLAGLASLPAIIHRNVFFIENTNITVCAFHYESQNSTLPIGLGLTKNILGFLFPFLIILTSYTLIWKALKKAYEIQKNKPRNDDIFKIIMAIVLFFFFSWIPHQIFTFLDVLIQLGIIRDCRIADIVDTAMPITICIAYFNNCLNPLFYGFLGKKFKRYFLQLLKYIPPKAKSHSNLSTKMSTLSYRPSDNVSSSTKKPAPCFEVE
T3 sequence (Q8NFJ6 whole entry): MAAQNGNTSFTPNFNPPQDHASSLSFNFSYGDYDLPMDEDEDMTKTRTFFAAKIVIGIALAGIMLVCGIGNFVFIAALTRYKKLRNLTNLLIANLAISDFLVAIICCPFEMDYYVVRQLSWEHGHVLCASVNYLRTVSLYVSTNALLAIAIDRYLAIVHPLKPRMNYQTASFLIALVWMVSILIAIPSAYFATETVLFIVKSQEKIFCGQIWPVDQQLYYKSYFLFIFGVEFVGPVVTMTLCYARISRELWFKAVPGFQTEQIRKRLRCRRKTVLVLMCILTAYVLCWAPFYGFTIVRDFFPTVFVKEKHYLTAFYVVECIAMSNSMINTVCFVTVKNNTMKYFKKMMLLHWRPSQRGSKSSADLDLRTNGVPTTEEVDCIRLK
Sequence of 320 non-olfactory GPCRs (Homo sapiens, UniProt P21554) (P21554 whole entry): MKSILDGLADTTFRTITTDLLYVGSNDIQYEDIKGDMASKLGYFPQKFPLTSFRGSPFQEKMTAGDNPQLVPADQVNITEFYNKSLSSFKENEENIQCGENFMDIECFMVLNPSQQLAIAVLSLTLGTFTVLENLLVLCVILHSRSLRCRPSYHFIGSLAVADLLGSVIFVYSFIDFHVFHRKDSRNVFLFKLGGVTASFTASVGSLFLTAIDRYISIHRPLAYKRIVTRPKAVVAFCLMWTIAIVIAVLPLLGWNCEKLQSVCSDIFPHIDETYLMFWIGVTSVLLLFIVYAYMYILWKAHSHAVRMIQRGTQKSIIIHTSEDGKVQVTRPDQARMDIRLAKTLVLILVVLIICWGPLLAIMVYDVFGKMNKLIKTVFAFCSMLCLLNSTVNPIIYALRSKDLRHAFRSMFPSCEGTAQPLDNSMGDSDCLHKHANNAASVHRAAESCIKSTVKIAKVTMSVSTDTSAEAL

## CCOc1cccc2cc(C(C)NCC3(O)CCCCC3)oc12 (stereo not shown) [O4LE6]
320 non-olfactory GPCRs [1]
  Fold of Basal: 1.089 and 1.197 and 0.9218 and 0.8315
320 non-olfactory GPCRs [2]
  GPCRome agonism screen response: 1.011 and 1.168 and 0.7811 and 1.192
320 non-olfactory GPCRs [3]
  Fold of Basal: 1.668 and 2.301 and 2.105 and 2.204
320 non-olfactory GPCRs [4]
  GPCRome agonism screen response: 0.6601 and 1.45 and 1.515 and 1.156
